# Reference: PubChem BioAssay AID179 (DTP/NCI, 2004)
# Several values for one entry are separate records, joined by “and”; a condition that tells them apart may be missing. Equal entries are not always repeated. Activity calls are given as the source filed them.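 The calls were made as follows: active = compounds giving half or more protection of infected cells from virus-caused growth loss, again on retest; inactive = the rest.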
# Tested on: CEM cells HIV-1 protection, formazan growth assay
# Test: NCI AIDS Antiviral Assay
# Conditions: for IC50: measured here: growth of uninfected CEM cells
# Outline: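 Human CEM cells, uninfected and HIV-1-infected, exposed to five drug concentrations; growth measured by soluble formazan assay and scored as percent protection from infection, with protecting compounds retested.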
SMILES,EC50 [µM],IC50,outcome
NC(N)=NS(=O)(=O)c1ccc(NC(=O)c2cccc3c(N)c4ccccc4nc23)cc1,> 51.3,33.9 µM,
Cc1ccnc(NC(=S)Nc2ccc([N+](=O)[O-])cc2)c1,> 200,> 200 µM,
CC(=O)[C@H]1[C@@H](OCc2ccccc2)O[N+]([O-])=C(C)[C@@H]1c1ccccc1,> 123,89.1 µM,
O=C1CCCCC/C1=C\c1ccc(Cl)cc1,> 200,27.5 µM,
CCOC(=O)CCC(NC(=O)c1ccc(Nc2nc3ccc(C(F)(F)F)cc3nc2-c2ccccc2)cc1)C(=O)OCC (stereo unspecified),> 200,141 µM,
O=C(Nc1ccc(OCC2=NCCN2)cc1)c1ccc(C(=O)Nc2ccc(OCC3=NCCN3)cc2)cc1,> 200,> 200 µM,
O=C1/C(=C/c2ccccc2)CCCC12C(c1ccccc1)N2Cc1ccccc1 (stereo unspecified),> 200,7.41 µM,
O=C(CC1(O)C(=O)Nc2c(Cl)ccc(Cl)c21)c1ccc(Cl)cc1 (stereo unspecified),> 51.3,> 51.3 µM,
N#C[C@H](C(=O)c1ccccc1F)c1nc2ccccc2s1,> 200,93.3 µM,
CCCCc1ccc(-n2sc3ncc([N+](=O)[O-])cc3c2=O)cc1,> 17,10 µM,
CCN(CC)C(=O)N1CCN(C)CC1,> 200,> 200 µM,inactive
CC(C)(C)c1cc(/C=C2\CCC/C(=C\c3cc(C(C)(C)C)c(O)c(C(C)(C)C)c3)C2=O)cc(C(C)(C)C)c1O,> 200,> 200 µM,
CC(C)(C)OC(=O)N(CCCCN(CCCNC(=O)C(F)(F)F)C(=O)OC(C)(C)C)CCCNC(=O)C(F)(F)F,,,inactive
[Li+],,,inactive
CCOc1ccc(NCc2cc(OC)c(OC)c(OC)c2)cc1,> 158,0.324 µM and 0.339 µM,
CCOP(=O)(OCC)C(Nc1ccc(C(=O)O)cc1)c1ccc(C(Nc2ccc(C(=O)O)cc2)P(=O)(OCC)OCC)cc1 (stereo unspecified),> 200,> 200 µM,
C=C1C(=O)O[C@H]2C/C(C=O)=C\[C@H]3O[C@H]3/C(COC(=O)C(C)C)=C/CC12 (stereo partly specified),> 200,1.62 µM,
COC(=O)C1CCC(=O)N1C(c1ccccc1)c1ccc(OC)c(OC)c1 (stereo unspecified),> 200,> 200 µM,
CC1(C)Oc2ccc3c(=O)c(-c4ccccc4)c(-c4ccccc4)oc3c2C1C(=O)O (stereo unspecified),> 200,72.4 µM,
C[C@]12CCc3nonc3C1CC[C@@H]1C2CC[C@@]2(C)C1CC[C@@H]2O (stereo partly specified),> 214,174 µM,
NC(CCc1ncc(-c2ccccc2)s1)C(=O)O (stereo unspecified),,,inactive

SMILES,EC50 [µM],IC50,outcome
NC(=S)C(=S)N=Cc1c(N)[nH]n(-c2ccccc2)c1=O,> 120,70.8 µM,
COC(=O)Cc1c(C2C(CC(=O)OC)c3ccccc3N2C2OC(CO)C(O)C(O)C2O)[nH]c2ccccc12 (stereo unspecified),112,151 µM,
CCOc1ccc(NC(=O)CC2SC(=Nc3ccc(C)cc3C)NC2=O)cc1 (stereo unspecified),> 66.1,> 66.1 µM,
CC(C)=CCCc1c(C)ccc2c1C(=O)C(=O)C(C(C)C)=C2O,> 57.5,33.9 µM,
C=CCNC1=C2C[C@@H](C)C[C@@H](OC)C(OC(=O)CCCN(C)C)[C@H](C)/C=C(\C)[C@@H](OC(N)=O)[C@H](OC)/C=C\C=C(/C)C(=O)NC(=CC1=O)C2=O (stereo partly specified),> 200,11 µM,
Cc1ccc[n+](N)c1N,> 1000,> 1000 µM,
O=[As](O)(O)c1ccc(Nc2nc(Cl)nc(Cl)n2)cc1,> 200,> 200 µM,
COc1ccc(N=C(C)C(C)=Nc2ccc(OC)cc2)cc1,,,inactive
O=[N+]([O-])c1ccccc1SSc1ccccc1[N+](=O)[O-],> 12.3,7.41 µM,inactive
O=C1C2=Cc3ccccc3OC2(O)Oc2cc(O)ccc21 (stereo unspecified),> 200,49 µM,
COc1cc(CNC2c3cc4c(cc3C(c3cc(OC)c(OC)c(OC)c3)[C@H]3C(=O)OCC23)OCO4)cc(OC)c1OC (stereo partly specified),,,inactive
Nc1ncnc2c1ncn2C1CCC(COS(N)(=O)=O)C1 (stereo unspecified),> 200,> 200 µM,
COc1cc2ccc1-c1cc(ccc1O)CC1c3cc4c(cc3CCN1C)Oc1c(OC)cc3c(c1O4)C(C2)N(C)CC3 (stereo unspecified),,,inactive
CC1SC(N)=NN=C1c1c(O)c2ccccc2oc1=O (stereo unspecified),> 200,148 µM,
COc1ccc2c3c1C(=O)CCC3CO2 (stereo unspecified),,,inactive
CCN(C)N=Nc1ccc(C(N)=O)cc1,> 1200,617 µM,
Nc1c(Br)cc(-c2cc(Br)c(N)c(Br)c2)cc1Br,> 200,138 µM,
CCC1CN2CCc3cc(OC)c(OC)cc3C2CC1CC1c2cc(OC)c(OC)cc2CCN1C(=O)C1CCCN1 (stereo unspecified),,,inactive
CC(=O)NC(C)(C)C1CCC(C)=C(c2ccccc2)C1 (stereo unspecified),> 95.5,47.9 µM,
C[C@@H](NS(=O)(=O)c1ccc(NC(=O)c2ccccc2)cc1)C(=O)O,,,inactive
CCOC(OCC)c1ccc(-n2c(N)c(C#N)cnc2=S)c2c1OC2=NC=C(C#N)C#N,> 151,> 151 µM,

SMILES,EC50 [µM],IC50,outcome
CC#CC(O)(C(=O)OC1CC(C)N(C)C(C)(C)C1)C1CCCC1 (stereo unspecified),> 200,> 200 µM,
c1cc2nc(c1)CSCCCCCCCCSC2,> 35.5,> 35.5 µM,
O=C(O)CC12C3C4C5C3C1C5C42 (stereo unspecified),> 575,> 575 µM,
CC(=O)N1c2ccccc2C2=CC3C4C(=O)N(c5ccccc5)C(=O)C4C21C1C(=O)N(c2ccccc2)C(=O)C31 (stereo unspecified),,,inactive
O=C1[C@@H]2C(c3ccccc3)=NO[C@@H]2C(=O)N1c1ccc(Cc2ccc(N3C(=O)[C@H]4C(c5ccccc5)=NO[C@H]4C3=O)cc2)cc1,> 31.6,> 31.6 µM,
Cc1ccccc1Nc1nc2ccccc2nc1NS(=O)(=O)c1ccccc1,> 200,> 200 µM,
N#C/C(C(=S)Nc1ccc(Cl)cc1)=C1/Nc2ccccc2O1,> 200,37.2 µM,
CCCCCCCCCCCc1c(O)c(O)cc2nc3cc(Cl)c(Cl)cc3nc12,> 16.6,5.37 µM,
O=C(O)c1cc(Cc2ccc(O)c(C(=O)O)c2)ccc1O,562,871 µM,active
Cc1c(C)[n+](=O)c2ccc(/C=[N+](/[O-])CCO)cc2n1[O-],,,inactive
CC1(C)SC2C(NC(=O)C(N)c3ccccc3)C(=O)N2C1C(=O)O (stereo unspecified),> 200,> 200 µM,
O=P(O)(O)C(N=C(Nc1ccccc1)Nc1ccccc1)P(=O)(O)O,> 100,> 100 µM,
NCCN.O=C([O-])C(=O)[O-].O=C([O-])C(=O)[O-].[Co+3].[K+],> 372,269 µM,
CC(C)=C1C=C2CC[C@@H]3[C@](C)(CCC[C@@]3(C)C(=O)O)[C@H]2CC1,> 200,105 µM,
Nn1c(CCCCCCCCc2nnc(COc3ccc4ccccc4c3O)n2N)nnc1COc1ccc2ccccc2c1O,> 200,2.45 µM,
O=S(=O)(c1ccccc1)n1cnc(CCc2ccccc2)n1,> 794,> 794 µM,
C#CCNCC(=O)O,46.8,> 200 µM,
Nc1ccc2c3c(cccc13)C(=O)N(CCCBr)C2=O,> 200,7.08 µM,
CN(C)Cc1cc(N=Nc2cccc(Cl)c2)ccc1O,> 20,4.79 µM,
CC(=O)NC(CCCN(Cc1ccccc1)C(=O)N(CCCl)N=O)C(=O)NCc1ccccc1 (stereo unspecified),> 74.1,45.7 µM,
